Experimental data published in patent US11931424B2, “Combination MCL-1 inhibitors with anti-body drug conjugates” (Gilead Sciences, Inc., priority 2021, dated 2024).

Tested on: panel of breast cancer cell lines
Test: Compound A with targeted agents and chemotherapies, 72-hour in vitro proliferation assays
Format: cell-based
Details: compound A × partner, 72-hour proliferation

CCOc1cc2ncc(C#N)c(Nc3ccc(OCc4ccccn4)c(Cl)c3)c2cc1NC(=O)/C=C/CN(C)C [Neratinib]
Best CI (AU565 cell line): 0.40 | Bliss Volume (AU565 cell line): 18.09 | HSA volume (AU565 cell line): 11.74 | Loewe Volume (AU565 cell line): 10.72 | Synergy Score (AU565 cell line): 19.43 | Best CI (BT-20 cell line): 0.05 | Bliss Volume (BT-20 cell line): 38.29 | HSA volume (BT-20 cell line): 28.06 | Loewe Volume (BT-20 cell line): 28.33 | Synergy Score (BT-20 cell line): 58.64 | Best CI (CAL-51 cell line): 0.29 | Bliss Volume (CAL-51 cell line): 6.99 | HSA volume (CAL-51 cell line): 4.62 | Loewe Volume (CAL-51 cell line): 6.71 | Synergy Score (CAL-51 cell line): 14.86 | Best CI (CAL-85-1 cell line): 0.13 | Bliss Volume (CAL-85-1 cell line): 22.07 | HSA volume (CAL-85-1 cell line): 18.05 | Loewe Volume (CAL-85-1 cell line): 16.51 | Synergy Score (CAL-85-1 cell line): 28.31 | Best CI (CAL-120 cell line): 0.82 | Bliss Volume (CAL-120 cell line): 4.43 | HSA volume (CAL-120 cell line): 4.29 | Loewe Volume (CAL-120 cell line): 3.99 | Synergy Score (CAL-120 cell line): 11.20 | Best CI (CAL-148 cell line): 0.21 | Bliss Volume (CAL-148 cell line): 18.81 | HSA volume (CAL-148 cell line): 13.97 | Loewe Volume (CAL-148 cell line): 17.68 | Synergy Score (CAL-148 cell line): 29.60 | Best CI (CAMA-1 cell line): 0.40 | Bliss Volume (CAMA-1 cell line): 26.19 | HSA volume (CAMA-1 cell line): 5.28 | Loewe Volume (CAMA-1 cell line): 3.50 | Synergy Score (CAMA-1 cell line): 6.88 | Best CI (DU-4475 cell line): 0.43 | Bliss Volume (DU-4475 cell line): 10.55 | HSA volume (DU-4475 cell line): 1.06 | Loewe Volume (DU-4475 cell line): 0.39 | Synergy Score (DU-4475 cell line): 2.06 | Best CI (EVSA-T cell line): 0.51 | Bliss Volume (EVSA-T cell line): 2.50 | HSA volume (EVSA-T cell line): 1.44 | Loewe Volume (EVSA-T cell line): 1.31 | Synergy Score (EVSA-T cell line): 1.92 | Best CI (HCC38): 1.06 | Bliss Volume (HCC38): 17.98 | HSA volume (HCC38): 8.02 | Loewe Volume (HCC38): 11.04 | Synergy Score (HCC38): 11.55 | Best CI (HCC70): 0.09 | Bliss Volume (HCC70): 36.07 | HSA volume (HCC70): 21.70 | Loewe Volume (HCC70): 21.51 | Synergy Score (HCC70): 42.47 | Best CI (HCC1143): 0.47 | Bliss Volume (HCC1143): 14.84 | HSA volume (HCC1143): 7.69 | Loewe Volume (HCC1143): 8.83 | Synergy Score (HCC1143): 12.39 | Best CI (HCC1569): 0.76 | Bliss Volume (HCC1569): 17.69 | HSA volume (HCC1569): 11.68 | Loewe Volume (HCC1569): 14.89 | Synergy Score (HCC1569): 23.33 | Best CI (HCC1806): 0.15 | Bliss Volume (HCC1806): 25.34 | HSA volume (HCC1806): 19.39 | Loewe Volume (HCC1806): 21.61 | Synergy Score (HCC1806): 37.41 | Best CI (HCC1937): 0.84 | Bliss Volume (HCC1937): 13.93 | HSA volume (HCC1937): 5.77 | Loewe Volume (HCC1937): 10.37 | Synergy Score (HCC1937): 13.10 | Best CI (HCC1954): 0.06 | Bliss Volume (HCC1954): 37.73 | HSA volume (HCC1954): 19.30 | Loewe Volume (HCC1954): 19.31 | Synergy Score (HCC1954): 38.93 | Best CI (HCC2218): 0.05 | Bliss Volume (HCC2218): 30.06 | HSA volume (HCC2218): 10.84 | Loewe Volume (HCC2218): 8.50 | Synergy Score (HCC2218): 20.85 | Best CI (HDQ-P1): 0.57 | Bliss Volume (HDQ-P1): 10.17 | HSA volume (HDQ-P1): 9.28 | Loewe Volume (HDQ-P1): 9.93 | Synergy Score (HDQ-P1): 17.02 | Best CI (HMC-1-8): 0.24 | Bliss Volume (HMC-1-8): 19.74 | HSA volume (HMC-1-8): 14.99 | Loewe Volume (HMC-1-8): 15.17 | Synergy Score (HMC-1-8): 30.76 | Best CI (JIMT-1): 0.18 | Bliss Volume (JIMT-1): 10.52 | HSA volume (JIMT-1): 11.00 | Loewe Volume (JIMT-1): 11.11 | Synergy Score (JIMT-1): 17.62

O=C(c1cc(Cc2n[nH]c(=O)c3ccccc23)ccc1F)N1CCN(C(=O)C2CC2)CC1 [Olaparib]
Best CI (AU565 cell line): 0.75 | Bliss Volume (AU565 cell line): 2.11 | HSA volume (AU565 cell line): −1.92 | Loewe Volume (AU565 cell line): 0.98 | Synergy Score (AU565 cell line): 2.27 | Best CI (BT-20 cell line): 0.88 | Bliss Volume (BT-20 cell line): 0.80 | HSA volume (BT-20 cell line): 0.38 | Loewe Volume (BT-20 cell line): 0.63 | Synergy Score (BT-20 cell line): 4.78 | Best CI (CAL-51 cell line): 0.55 | Bliss Volume (CAL-51 cell line): 1.50 | HSA volume (CAL-51 cell line): 1.03 | Loewe Volume (CAL-51 cell line): 2.21 | Synergy Score (CAL-51 cell line): 1.89 | Best CI (CAL-85-1 cell line): 0.67 | Bliss Volume (CAL-85-1 cell line): 4.52 | HSA volume (CAL-85-1 cell line): 5.66 | Loewe Volume (CAL-85-1 cell line): 6.67 | Synergy Score (CAL-85-1 cell line): 5.10 | Best CI (CAL-120 cell line): 0.85 | Bliss Volume (CAL-120 cell line): 3.31 | HSA volume (CAL-120 cell line): −3.93 | Loewe Volume (CAL-120 cell line): −3.49 | Synergy Score (CAL-120 cell line): 0.11 | Best CI (CAL-148 cell line): 0.27 | Bliss Volume (CAL-148 cell line): 3.34 | HSA volume (CAL-148 cell line): 5.39 | Loewe Volume (CAL-148 cell line): 5.40 | Synergy Score (CAL-148 cell line): 9.33 | Best CI (CAMA-1 cell line): 1.12 | Bliss Volume (CAMA-1 cell line): 5.62 | HSA volume (CAMA-1 cell line): 2.59 | Loewe Volume (CAMA-1 cell line): 3.95 | Synergy Score (CAMA-1 cell line): 4.78 | Best CI (DU-4475 cell line): 1.00 | Bliss Volume (DU-4475 cell line): 7.40 | HSA volume (DU-4475 cell line): 5.68 | Loewe Volume (DU-4475 cell line): 5.80 | Synergy Score (DU-4475 cell line): 4.61 | Best CI (EVSA-T cell line): 1.17 | Bliss Volume (EVSA-T cell line): 6.05 | HSA volume (EVSA-T cell line): 3.16 | Loewe Volume (EVSA-T cell line): 3.21 | Synergy Score (EVSA-T cell line): 4.47 | Best CI (HCC38): 0.72 | Bliss Volume (HCC38): 6.78 | HSA volume (HCC38): 7.48 | Loewe Volume (HCC38): 7.01 | Synergy Score (HCC38): 8.69 | Best CI (HCC70): 0.94 | Bliss Volume (HCC70): 6.93 | HSA volume (HCC70): 6.07 | Loewe Volume (HCC70): 6.54 | Synergy Score (HCC70): 12.18 | Best CI (HCC1143): 0.24 | Bliss Volume (HCC1143): 4.87 | HSA volume (HCC1143): 3.84 | Loewe Volume (HCC1143): 3.62 | Synergy Score (HCC1143): 4.20 | Best CI (HCC1569): 0.84 | Bliss Volume (HCC1569): 7.47 | HSA volume (HCC1569): 5.26 | Loewe Volume (HCC1569): 8.00 | Synergy Score (HCC1569): 4.98 | Best CI (HCC1806): 0.21 | Bliss Volume (HCC1806): 7.25 | HSA volume (HCC1806): 8.26 | Loewe Volume (HCC1806): 8.49 | Synergy Score (HCC1806): 7.73 | Best CI (HCC1937): 0.63 | Bliss Volume (HCC1937): 2.27 | HSA volume (HCC1937): −1.83 | Loewe Volume (HCC1937): 3.06 | Synergy Score (HCC1937): 1.77 | Best CI (HCC1954): 0.92 | Bliss Volume (HCC1954): 1.68 | HSA volume (HCC1954): 0.48 | Loewe Volume (HCC1954): 1.64 | Synergy Score (HCC1954): 4.49 | Best CI (HCC2218): 0.88 | Bliss Volume (HCC2218): −1.34 | HSA volume (HCC2218): −1.12 | Loewe Volume (HCC2218): −1.71 | Synergy Score (HCC2218): 2.66 | Best CI (HDQ-P1): 0.51 | Bliss Volume (HDQ-P1): 3.81 | HSA volume (HDQ-P1): −0.38 | Loewe Volume (HDQ-P1): 3.65 | Synergy Score (HDQ-P1): 1.22 | Best CI (HMC-1-8): 0.78 | Bliss Volume (HMC-1-8): 10.54 | HSA volume (HMC-1-8): 5.78 | Loewe Volume (HMC-1-8): 6.22 | Synergy Score (HMC-1-8): 10.86 | Best CI (JIMT-1): 0.59 | Bliss Volume (JIMT-1): −1.42 | HSA volume (JIMT-1): −0.34 | Loewe Volume (JIMT-1): −1.35 | Synergy Score (JIMT-1): 0.61 | HSA volume (KPL-1): 1.49
